Experimental findings from ChEMBL document CHEMBL5518181, “Studies of antibacterial activity (in vitro and in vivo) and mode of action for des-acyl tridecaptins (DATs)” (Eur J Med Chem, 2024) are described below.

A short description of data set [1]: Binding affinity to gram negative bacterial lipid II assessed as dissociation constant by ITC analysis. On the set-up: species or system Bacteria.
Data set [2] relates to Escherichia coli. Kind of data set: Antibacterial activity against wild-type Escherichia coli ATCC 25922 assessed as inhibition of bacterial growth incubated for 18 hrs. The conditions noted are these: for MIC: read-out: MIC100. In kind it is functional.
Data set [3] is described as follows: Hemolytic activity in human red blood cells at 400 ug/ml incubated for 45 mins by spectrophotometric analysis relative to control. In kind it is toxicity, cell-based, Erythrocyte. The conditions noted are these: red blood cells (erythrocytes), at 400 µg/mL, read-out: Activity.
Data set [4] deals with Klebsiella pneumoniae. Kind of data set: Antibacterial activity against wild-type Klebsiella pneumoniae ATCC 13883 assessed as inhibition of bacterial growth incubated for 18 hrs. The conditions noted are these: for MIC: read-out: MIC100. Type of data set: functional.
A short description of data set [5]: Cytotoxicity against human HepG2 cells incubated for 40 hrs by celltiter-glo luminescent cell viability assay. In kind it is toxicity, cell-based. For orientation: ATP-based viability assays read luminescence as a measure of living cells.
Another data set relates to Lipopolysaccharide (LPS). In words: Binding affinity to Escherichia coli O55:B5 LPS assessed as dissociation constant by ITC analysis. In kind it is subcellular. On the technique in general: In ITC the heat of successive injections is recorded.
Data set [6] in a line: Hydrophobicity of compound assessed as %MeCN at peak elution by RP-HPLC analysis. In kind it is physicochemical.
Data set [7] deals with Escherichia coli. Kind of data set: Antibacterial activity against wild-type Escherichia coli ATCC 25922 assessed as inhibition of bacterial growth by measuring fold increase in MIC incubated for 18 hrs in presence of 50% heat inactivated human serum relative to control. Type of data set: functional.
Data set [8] concerns Staphylococcus aureus. In words: Antibacterial activity against […] assessed as inhibition of bacterial growth incubated for 18 hrs. Type of data set: functional. The following applies: ATCC 29213, read-out: MIC100.
Data set [9] deals with Klebsiella pneumoniae. Kind of data set: Antibacterial activity against wild-type Klebsiella pneumoniae ATCC 13883 assessed as inhibition of bacterial growth incubated for 18 hrs in presence of 50% heat inactivated human serum. Type of data set: functional. The conditions noted are these: read-out: MIC100.
The next data set deals with Acinetobacter baumannii. Kind of data set: Antibacterial activity against wild-type Acinetobacter baumannii ATCC 19606 assessed as inhibition of bacterial growth incubated for 20 hrs. The conditions noted are these: read-out: MIC100. Type of data set: functional.
Data set [10] deals with Escherichia coli. Kind of data set: Antibacterial activity against Escherichia coli ATCC 25922 harboring hldE knock-out assessed as inhibition of bacterial growth incubated for 18 hrs. In kind it is functional. The conditions noted are these: read-out: MIC100.
The subject of data set [11] is Escherichia coli. Kind of data set: Antibacterial activity against wild-type Escherichia coli ATCC 25922 assessed as inhibition of bacterial growth incubated for 18 hrs in presence of 50% heat inactivated human serum. Type of data set: functional. The conditions noted are these: read-out: MIC100.
Data set [12] concerns Escherichia coli. In words: Antibacterial activity against Escherichia coli ATCC 25922 harboring tolC knock-out assessed as inhibition of bacterial growth incubated for 18 hrs. Type of data set: functional. The conditions noted are these: read-out: MIC100.
Data set [13] relates to Pseudomonas aeruginosa. In words: Antibacterial activity against wild-type Pseudomonas aeruginosa PAO1 assessed as inhibition of bacterial growth incubated for 24 hrs. In kind it is functional. The following applies: read-out: MIC100.
A further data set concerns Morganella morganii. Kind of data set: Antibacterial activity against Morganella morganii ATCC 25830 assessed as inhibition of bacterial growth incubated for 18 hrs. Type of data set: functional.
Data set [14] concerns Escherichia coli. Kind of data set: Antibacterial activity against Escherichia coli ATCC BAA-2469 expressing NDM-1 assessed as inhibition of bacterial growth incubated for 18 hrs. Type of data set: functional.
The test system of the next data set is Citrobacter freundii. In words: Antibacterial activity against Citrobacter freundii ATCC 8090 assessed as inhibition of bacterial growth incubated for 18 hrs. In kind it is functional.
The test system of data set [15] is Escherichia coli. In words: Antibacterial activity against Escherichia coli Swiss 9 harboring mcr-1 gene assessed as inhibition of bacterial growth incubated for 18 hrs. Type of data set: functional.
The test system of data set [16] is Klebsiella pneumoniae. In words: Antibacterial activity against Klebsiella pneumoniae ATCC 43816 assessed as inhibition of bacterial growth incubated for 18 hrs. Type of data set: functional.
Data set [17] has as its system Klebsiella pneumoniae. Kind of data set: Antibacterial activity against Klebsiella pneumoniae panel (100 strains) assessed as inhibition of bacterial growth. Type of data set: functional.
Data set [18] concerns Escherichia coli. Kind of data set: Antibacterial activity against colistin resistant Escherichia coli NCTC 13846 harboring mcr-1 gene assessed as inhibition of bacterial growth incubated for 18 hrs. In kind it is functional.
The test system of another data set is Serratia marcescens. In words: Antibacterial activity against intrinsically colistin resistant Serratia marcescens ATCC 13880 assessed as inhibition of bacterial growth incubated for 18 hrs. In kind it is functional.
Another data set has as its system Providencia stuartii. In words: Antibacterial activity against Providencia stuartii ATCC 25826 assessed as inhibition of bacterial growth incubated for 18 hrs. Type of data set: functional.
The test system of data set [19] is Pseudomonas aeruginosa. In words: Antibacterial activity against efflux-deficient Pseudomonas aeruginosa PAO750 assessed as inhibition of bacterial growth incubated for 18 hrs. In kind it is functional.
In another data set the test system is Enterobacter cloacae. Kind of data set: Antibacterial activity against Enterobacter cloacae ATCC 23355 assessed as inhibition of bacterial growth incubated for 18 hrs. Type of data set: functional.
For data set [20], the system named is Escherichia coli. In words: Antibacterial activity against Escherichia coli Swiss 7 harboring mcr-1 gene assessed as inhibition of bacterial growth incubated for 18 hrs. Type of data set: functional.
In data set [21] the test system is Klebsiella pneumoniae. In words: Antibacterial activity against Klebsiella pneumoniae ATCC BAA-2470 expressing NDM-1 assessed as inhibition of bacterial growth incubated for 18 hrs. Type of data set: functional.
In data set [22] the test system is Escherichia coli. In words: Antibacterial activity against Escherichia coli panel (100 strains) assessed as inhibition of bacterial growth. Type of data set: functional.
Another data set has as its system Klebsiella aerogenes. In words: Antibacterial activity against Enterobacter aerogenes ATCC 13048 assessed as inhibition of bacterial growth incubated for 18 hrs. Type of data set: functional.
The test system of a further data set is Proteus mirabilis. In words: Antibacterial activity against Proteus mirabilis ATCC 25933 assessed as inhibition of bacterial growth incubated for 18 hrs. Type of data set: functional.
The test system of a further data set is Salmonella typhimurium. Kind of data set: Antibacterial activity against Salmonella typhimurium ATCC 13311 assessed as inhibition of bacterial growth incubated for 18 hrs. The conditions noted are these: Salmonella enterica subsp. enterica serovar Typhimurium. In kind it is functional.
Data set [23] has as its system Staphylococcus aureus. In words: Antibacterial activity against wild type Staphylococcus aureus USA300 assessed as inhibition of bacterial growth incubated for 18 hrs. In kind it is functional.

Converted amounts (≈) assume the structure as drawn.

One may read the Kd as the equilibrium constant for the complex coming apart. Broadly, the IC50 is the point on the concentration scale where inhibition reaches its midpoint. For `CC[C@H](C)[C@H](N)C(=O)N[C@@H](C(=O)N[C@H](CCN)C(=O)NCC(=O)N[C@H](CO)C(=O)N[C@H](Cc1c[nH]c2ccccc12)C(=O)N[C@@H](CO)C(=O)N[C@@H](CCN)C(=O)N[C@H](CCN)C(=O)N[C@@H](Cc1ccccc1)C(=O)N[C@@H](CCC(=O)O)C(=O)N[C@H](C(=O)N[C@@H](C(=O)N[C@@H](C)C(=O)O)[C@@H](C)CC)C(C)C)C(C)C`, the Kd in data set [1] was found to be 4.8 µM; in the data set on Lipopolysaccharide (LPS), 0.088 µM. Moreover, the MIC in the data set with Escherichia coli [2] and in the data set on Klebsiella pneumoniae [4] was 1 µg/mL (≈ 0.663 µM) in each case. The hemolysis at 0.75 h, 400 ug/ml in data set [3] was 56.9%. Moreover, the IC50 at 40 h in data set [5] was 20 µg/mL (≈ 13.3 µM).

With `CC[C@@H](C)[C@@H](NC(=O)[C@@H](NC(=O)[C@H](CCC(=O)O)NC(=O)[C@H](Cc1ccccc1)NC(=O)[C@@H](CCN)NC(=O)[C@H](CCN)NC(=O)[C@H](CO)NC(=O)[C@@H](Cc1c[nH]c2ccccc12)NC(=O)[C@@H](CO)NC(=O)CNC(=O)[C@@H](CCN)NC(=O)[C@H](N)C(C)C)C(C)C)C(=O)N[C@@H](C)C(N)=O`, the Kd in [1] is 0.58 µM; in the data set with Lipopolysaccharide (LPS), 11.4 µM. For the same compound, the MIC is 16 µg/mL (≈ 11.5 µM) with Escherichia coli [2] and 64 µg/mL (≈ 45.9 µM) with Klebsiella pneumoniae [4]. Also, the hemolysis at 0.75 h, 400 ug/ml in [3] came out at 0.4%. In data set [5], the IC50 at 40 h was greater than 170 µg/mL.

Consider `CC[C@H](C)[C@@H](NC(=O)[C@@H](NC(=O)[C@H](CCC(=O)O)NC(=O)[C@H](Cc1ccccc1)NC(=O)[C@@H](CCN)NC(=O)[C@H](CCN)NC(=O)[C@H](CO)NC(=O)[C@@H](Cc1c[nH]c2ccccc12)NC(=O)[C@@H](CO)NC(=O)CNC(=O)[C@@H](CCN)NC(=O)[C@H](NC(=O)[C@H](C)N)C(C)C)C(C)(C)C)C(=O)N[C@@H](C)C(N)=O`, for which the “MeCN percentage at peak elution” value in data set [6] is 41.8%. For the same compound, the Kd in data set [1] was determined as 2.15 µM. Besides, the “fold change (FC)” value with Escherichia coli [7] is on record as 8. Besides, the MIC in the data set with Staphylococcus aureus [8] is greater than 64 µg/mL; in the data set on Klebsiella pneumoniae [9] it was 0.125 µg/mL; in the data set on Acinetobacter baumannii, 64 µg/mL (≈ 43.3 µM); in the data set with Escherichia coli [2] it was 16 µg/mL (≈ 10.8 µM); with Escherichia coli [10] it was greater than 64 µg/mL; in the data set with Escherichia coli [11] it was 2 µg/mL. Further, the figures for the MIC with Escherichia coli [12], with Klebsiella pneumoniae [4] and in the data set with Pseudomonas aeruginosa [13] were 0.5 µg/mL (≈ 0.338 µM), 8 µg/mL (≈ 5.41 µM) and greater than 64 µg/mL, respectively. Moreover, in data set [3], the hemolysis at 0.75 h, 400 ug/ml stood at 6%. This compound also yielded an IC50 at 40 h in [5] greater than 170 µg/mL.

As a reminder, the MIC50 is an inhibitory concentration at the 50% level, which refers to growth in some studies and to a panel of isolates in others. What is called MIC90 is the lowest concentration that inhibits either 90% of growth or 90% of the strains tested, depending on the study. For COLISTIN, the MIC100 is greater than 32 µg/mL in the data set with Morganella morganii; 2 µg/mL in the data set with Escherichia coli [14]; 2 µg/mL in the data set with Citrobacter freundii; 8 µg/mL in the data set with Escherichia coli [15]; 1 µg/mL in the data set with Klebsiella pneumoniae [16]; 0.5 µg/mL in the data set with Escherichia coli [2]. Besides, the MIC100 in the data set on Escherichia coli [18] is 8 µg/mL; in the data set on Serratia marcescens, greater than 32 µg/mL; in the data set on Providencia stuartii, greater than 32 µg/mL; with Pseudomonas aeruginosa [19] it was 2 µg/mL; with Enterobacter cloacae, 2 µg/mL; with Klebsiella pneumoniae [4], 2 µg/mL. The MIC100 with Escherichia coli [20] was 8 µg/mL; with Klebsiella pneumoniae [21], 4 µg/mL; in the data set with Klebsiella aerogenes, 2 µg/mL; in the data set on Proteus mirabilis, greater than 32 µg/mL; in the data set with Salmonella typhimurium, 2 µg/mL; in the data set on Staphylococcus aureus [23], greater than 32 µg/mL. Moreover, the MIC50 was 0.5 µg/mL in the data set with Klebsiella pneumoniae [17] and less than 0.125 µg/mL with Escherichia coli [22]. Also, the results for the MIC90 in the data set with Klebsiella pneumoniae [17] and with Escherichia coli [22] were greater than 16 µg/mL and 4 µg/mL, respectively.
